Measured values: PubChem BioAssay (NCI)
“And” between values parts separate entries of the source, which are not always exact repeats. Equal values may be shown once.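 Briefly, cells in 96-well plates were exposed to five compound concentrations for 48 h, and endpoints were estimated by linear interpolation. At the GI50, growth is halved. TGI: total growth inhibition.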

Experiments:
Assay in all cases: inhibition of tumour cell growth, NCI panel, 48 h
A549 NSCLC = system: A549 NSCLC
SNB-75 CNS = system: SNB-75 CNS
SF-295 CNS = system: SF-295 CNS
K-562 leukemia = system: K-562 leukemia
NCI-H522 lung = system: NCI-H522 lung
T-47D breast = system: T-47D breast
MOLT-4 leukemia = system: MOLT-4 leukemia
OVCAR-4 ovarian = system: OVCAR-4 ovarian
LOX IMVI melanoma = system: LOX IMVI melanoma
SNB-19 CNS = system: SNB-19 CNS

| Structure (SMILES) | TGI (A549 NSCLC) | TGI (SNB-75 CNS) [µM] | TGI (SF-295 CNS) | TGI (K-562 leukemia) | TGI (NCI-H522 lung) [µM] | TGI (T-47D breast) | TGI (MOLT-4 leukemia) [µM] | TGI (OVCAR-4 ovarian) [µM] | TGI (LOX IMVI melanoma) | TGI (SNB-19 CNS) | GI50 (A549 NSCLC) [µM] | GI50 (SNB-75 CNS) [µM] | GI50 (SF-295 CNS) [µM] | GI50 (K-562 leukemia) [µM] | GI50 (NCI-H522 lung) [µM] | GI50 (T-47D breast) [µM] | GI50 (MOLT-4 leukemia) [µM] | GI50 (OVCAR-4 ovarian) [µM] | GI50 (LOX IMVI melanoma) [µM] | GI50 (SNB-19 CNS) [µM] |
| --- | --- | --- | --- | --- | --- | --- | --- | --- | --- | --- | --- | --- | --- | --- | --- | --- | --- | --- | --- | --- |
| OC(C1=C/C(=C\c2ccncc2)c2ccccc21)c1ccncc1 (configuration not stated) | 41.8 µM | 24 | 31.4 µM | 28.1 µM | 31.1 | 33.7 µM | 23.9 | > 57.6 | 32 µM | 69.2 µM | – | – | – | – | – | – | – | – | – | – |
| O=C(NC1CC1)c1ccc(-c2nc3ccc4[nH]ncc4c3c3c2CCCC3)cc1 | > 50 µM | 4.87 | 13.6 µM | > 50 µM | 9.54 | 15.4 µM | 20.1 | > 50 | 11.7 µM | > 50 µM | 1.63 | 1.54 | 2.24 | 1.95 | 1.21 | 1.62 | 1.75 | 4.62 | 1.95 | 4.47 |
| CCN1C(=O)N(CC)C2C1NN=c1s/c(=C3\C(=O)N(CC(C)C)c4ccccc43)c(=O)n12 (configuration not stated) | > 100 µM | 3.82 | 11.4 µM | > 100 µM | – | > 100 µM | > 100 | > 100 | > 100 µM | 39.2 µM | 0.957 | 0.268 | 0.542 | 0.429 | 0.4 | 0.311 | 0.974 | 1.23 | 0.811 | 1.89 |
| O=C(c1cc(F)c(Cl)cc1Cl)N1N=C(c2ccccc2)CC1(O)c1ccccc1 (configuration not stated) | > 100 µM | 59.6 | > 100 µM | 27.2 µM | 36.9 | 53.7 µM | 43 | 57.8 | 30.8 µM | 93.7 µM | 27.8 | 20.7 | 32.9 | 12.2 | 14.5 | 18.1 | 19.8 | 17.8 | 17.1 | 29.2 |
| Fc1ccc(Oc2nccc(-c3c(-c4ccc(F)cc4)ncn3C3CCNCC3)n2)cc1 | > 25 µM | > 25 | > 25 µM | > 25 µM | > 25 | > 25 µM | > 25 | > 25 | > 25 µM | > 25 µM | > 25 | > 25 | > 25 | > 25 | > 25 | > 18 | > 25 | > 25 | > 25 | > 25 |
| c1ccc(C(=NNc2nc3ccccc3o2)c2ccccn2)nc1 | > 34.5 µM and 16.5 µM | 24.1 | 12.6 µM and 3.7 µM | > 100 µM and 22.9 µM | – | 12.4 µM and 25.8 µM | > 56.5 | – | 2.45 µM and 0.702 µM | > 46 µM and 33.7 µM | 0.108 | 0.397 | – | – | 0.0339 | – | 0.0316 | 0.0128 | 0.0539 | – |
| CCC1=C[C@@H]2CN(C1)Cc1c([nH]c3ccccc13)[C@@](C(=O)OC)(c1cc3c(cc1OC)N(C=O)[C@H]1[C@@](O)(C(=O)OC)[C@H](OC(C)=O)[C@]4(CC)[C@@H]5C[C@@H]5CN5CC[C@]31[C@@H]54)C2 | > 6.25 µM | > 5.74 | – | > 6.25 µM | 0.01 | > 6.25 µM | > 6.25 | > 6.25 | > 6.25 µM | > 6.25 µM | 0.003 | 0.000766 | 0.00156 | < 0.000625 | < 0.000625 | < 0.000625 | 0.000789 | 0.054 | < 0.000625 | 0.00127 |
| C/C=C(\C)C(=O)N[C@H]1[C@@H](OC(C)=O)C[C@]2(C)C3CC[C@@]4(C)C(CC[C@@H]4C(C)N(C)C)C3CCC2[C@H]1O (some centres not stated) | 20.3 µM | 20.8 | 14.9 µM | 5.02 µM | 15.3 | 10.3 µM | 33.8 | 31.5 | 4.02 µM | 28.9 µM | 5.41 | 5.86 | 3.44 | 1.32 | 4.99 | 2.06 | 6.19 | 5.29 | 1.78 | 13.6 |
| N=C1c2nc3n(c2C(=O)c2nc4n(c21)CCCC4)CCCC3 | 4.33 µM | 3.57 | 3.4 µM | > 100 µM | 26.1 | > 100 µM | > 100 | > 100 | 2.15 µM | 12.5 µM | 1.98 | 1.83 | 1.74 | 19.8 | 4.17 | 11.7 | 47.2 | 24.7 | 0.406 | 2.89 |
| COc1ccc(/C=C2\CN(C(=O)C(Cl)Cl)C/C(=C\c3ccc(OC)c(OC)c3)C2=O)cc1OC | > 100 µM | > 100 | 0.803 µM | > 100 µM | 0.697 | > 100 µM | > 100 | – | 0.0965 µM | – | 1.28 | 0.651 | 0.243 | 0.0366 | 0.231 | 0.361 | 0.135 | – | 0.0282 | – |
| CCOC(=O)CCCn1c(SC)nc2cc(-c3ccco3)[nH]c2c1=O | > 100 µM | 17.7 | 54.8 µM | > 100 µM | > 100 | > 100 µM | > 100 | > 100 | > 100 µM | 65.6 µM | > 100 | 4.55 | 16.7 | > 100 | 35.1 | 39.6 | > 100 | > 100 | 57.8 | 19.8 |
| COc1cc(NC(=O)c2cc(OC)c3ccn(C)c3c2)cc2c1C[C@]1(C)CC[C@@H](O)C(C)(C)[C@H]1O2 | > 100 µM | 40.8 | 2.95 µM | 39.3 µM | > 100 | > 100 µM | 15 | > 100 | 19 µM | > 100 µM | 10.3 | 1.89 | 1.01 | 3.82 | 20.6 | 10.3 | 2.98 | 37.6 | 4.08 | 25.3 |
| OCC(O)C(O)C(O)C1SC(c2ccccc2)=NN1c1ccccc1 (configuration not stated) | > 100 µM | 35.5 | > 100 µM | > 100 µM | 75.4 | > 70.3 µM | > 100 | > 100 | > 100 µM | > 89.8 µM | – | – | – | – | – | – | – | – | – | – |
| N#CC1=C(N)OC2=C(COc3ccc(F)cc32)C1c1ccc(Cl)cc1 (configuration not stated) | > 100 µM | > 100 | 78.3 µM | 82 µM | 93.6 | > 100 µM | > 100 | > 100 | > 100 µM | – | 93.4 | > 100 | 19.6 | 27.3 | 38.2 | > 100 | 44.7 | 78.3 | 35.1 | – |
| COC(=O)COc1ccc(/C=C2\N=C(c3ccccc3)N(c3cc(C(F)(F)F)ccc3Cl)C2=O)cc1 | > 100 µM | > 100 | > 100 µM | > 100 µM | 68.8 | > 100 µM | 69.1 | > 100 | 53.3 µM | > 100 µM | > 100 | 76.6 | > 100 | 47.3 | 24.1 | 82.9 | 28.6 | 54.8 | 21.8 | 83.8 |
| Cc1ccccc1CN1CC2=C(CCN(Cc3ccccc3)C2=O)N2CCN=C12 | > 100 µM | > 100 | > 60.4 µM | > 100 µM | > 100 | > 84.2 µM | > 100 | > 100 | > 100 µM | > 100 µM | – | – | – | – | – | – | – | – | – | – |
| C=C1CC[C@@]2(C#N)[C@H]3[C@H](CC[C@@H]2C)[C@@H](C)C[C@@H](CC(C)(C)C#N)[C@H]13 | 34.8 µM | 0.705 | 1.68 µM | > 100 µM | 57.9 | 10.9 µM | 72.1 | 41 | 14.5 µM | 70.1 µM | 3.52 | 0.215 | 0.171 | 0.46 | 10.8 | 2.24 | 3.02 | 2.14 | 0.413 | 10.1 |
| CCCCCNC(=O)[C@@H]1CCCN2C(=O)CC[C@H](NC(=O)[C@H](Cc3ccc(OP(=O)(O)O)cc3)NC(C)=O)C(=O)N12 | > 25 µM | > 25 | > 25 µM | > 25 µM | > 25 | > 25 µM | > 25 | > 25 | > 25 µM | > 25 µM | > 25 | > 25 | > 25 | > 25 | > 25 | > 25 | > 25 | > 25 | > 25 | > 25 |
| CCN(CC)CCOc1ccc(Nc2ncc3cc(-c4ccc(O)cc4)c(=O)n(C)c3n2)cc1 | 30.7 µM | 13.7 | 30.4 µM | – | 27.1 | 31.8 µM | 21.8 | 33.7 | 5.87 µM | 27.5 µM | 13.8 | 0.0406 | 13.9 | 0.039 | 2.69 | 12.2 | 0.2 | 16.7 | 0.168 | 8.57 |
| c1ccc2[nH]c(SSc3nc4ncncc4[nH]3)nc2c1 | > 100 µM | > 100 | – | > 100 µM | – | 98.9 µM | > 100 | > 100 | > 44.6 µM | > 100 µM | 19.4 | 13.1 | 0.457 | 0.278 | 0.383 | 0.489 | 0.486 | 3.64 | 0.279 | 64.5 |
| COc1cc(Cl)cc(-c2nn(C(=O)NCCN3CCN(C)CC3)cc2-c2ccncc2)c1 | > 100 µM | 9.65 | 46.6 µM | > 100 µM | 53.6 | > 100 µM | > 100 | > 100 | 46.2 µM | > 100 µM | 9.55 | 1.75 | 7.73 | 28.5 | 20.3 | 20.8 | 29.4 | 4.35 | 18 | 7.93 |
| O=[N+]([O-])c1ccc(-c2nc(N(CCO)CCO)c3ccccc3n2)o1 | 0.822 µM | 0.588 | 1.03 µM | > 20.6 µM | 0.217 | 5.02 µM | > 38.9 | 1.8 | 1.64 µM | 1.41 µM | 0.128 | 0.16 | 0.192 | 0.337 | 0.0713 | 0.319 | 0.508 | 0.208 | 0.269 | 0.229 |
| C=C(Cl)COC(=O)Nc1cccc(Cl)c1 | > 100 µM | 83.7 | 96.2 µM | > 100 µM | 83.6 | > 100 µM | > 100 | > 100 | > 100 µM | > 100 µM | – | – | – | – | – | – | – | – | – | – |
| CC(=O)Nc1nc(SCc2ccccc2)c2ncn(C(C)=O)c2n1 | > 100 µM | > 100 | > 100 µM | > 100 µM | > 100 | > 100 µM | > 100 | – | > 100 µM | > 100 µM | > 100 | 44.7 | 66.1 | > 100 | 72.6 | 50.7 | > 100 | – | 75.1 | > 100 |
| O=C1CCCCCCCC/C=C/CCC(c2ccco2)O1 (configuration not stated) | > 100 µM | 92 | > 100 µM | > 100 µM | > 100 | > 100 µM | 89.6 | – | 87.3 µM | 60.7 µM | > 100 | 23.7 | 18.6 | 35.2 | 37.7 | 21 | 24.1 | – | 35.3 | 24 |
| CC1(C)OC[C@@H]([C@@]2(CO[Si](C)(C)C(C)(C)C)CC=CC(=O)O2)O1 | 47.5 µM | – | 42 µM | > 100 µM | 86.2 | > 100 µM | > 100 | > 100 | > 100 µM | 68.9 µM | 16.7 | – | 19.6 | 26.7 | 30.2 | 24.9 | 23.7 | 30.7 | 28.3 | 22.7 |
